Measurements published in patent publication US10307413B2, “Tetrahydro- and dihydro-isoquinoline PRMT5 inhibitors and uses thereof” (Epizyme, Inc., priority 2013, dated 2019).
pEC50: −log10 of the molar value.

Assays:
[1] = tested on: symmetric di-methyl arginine in Z-138 cells; assay: Z-138 Methylation Assay (In Cell Western for symmetric di-methyl arginine and DNA content); type: cell-based; settings: Homo sapiens, read-out: ICW EC50
Excerpt: [formula] [formula] Where top and bottom are the normally allowed to float, but may be fixed at 100 or 0 respectively in a 3-parameter fit. The Hill Coefficient normally allowed to float but may also be fixed at 1 in a 3-parameter fit. Y is the % inhibition and X is the compound concentration.
RPMI/Glutamax medium, penicillin-streptomycin, heat inactivated fetal bovine serum, and D-PBS were purchased from Life Technologies, Grand Island, N.Y., USA. Odyssey blocking buffer, 800CW goat anti-rabbit IgG (H+L) antibody, and Licor Odyssey infrared scanner were purchased from Licor Biosciences, Lincoln, Nebr., USA. Symmetric di-methyl arginine antibody was purchased from EMD Millipore, Billerica, Mass., USA. 16% Paraformaldehyde was purchased from Electron Microscopy Sciences, Hatfield, Pa., USA.
Cell Treatment, in Cell Western (ICW) for Detection of Symmetric Di-Methyl Arginine and DNA Content.
Z-138 cells were seeded in assay medium at a concentration of 50,000 cells per mL to a 384-well cell culture plate with 50 μL per well. Compound (100 nL) from 384 well source plates was added directly to 384 well cell plate. Plates were incubated at 37° C., 5% CO2 for 96 hours. […] Plates were incubated at room temperature for 30 minutes then incubated at 37° C., 5% CO2 for 5 hours. After the incubation, 40 μL per well of 8% paraformaldehyde in PBS (16% paraformaldahyde was diluted to 8% in PBS) was added to each plate and incubated for 30 minutes. […] Next 30 μL per well of Odyssey blocking buffer were added to each plate and incubated 1 hour at room temperature. Blocking buffer was removed and 20 μL per well of primary antibody was added (symmetric di-methyl arginine diluted 1:100 in Odyssey buffer with 0.1% Tween 20 (v/v)) and plates were incubated overnight (16 hours) at 4° C. Plates were washed 5 times with 100 μL per well of wash buffer. Next 20 μL per well of secondary antibody was added (1:200 800CW goat anti-rabbit IgG (H+L) antibody, 1:1000 DRAQ5 (Biostatus limited) in Odyssey buffer with 0.1% Tween 20 (v/v)) and incubated for 1 hour at room temperature. The plates were washed 5 times with 100 μL per well wash buffer then 1 time with 100 μL per well of water. Plates were allowed to dry at room temperature then imaged on the Licor Odyssey machine which measures integrated intensity at 700 nm and 800 nm wavelengths. Both 700 and 800 channels were scanned.
First, the ratio for each well was determined by:
Each plate included fourteen control wells of DMSO only treatment (minimum inhibition) as well as fourteen control wells for maximum inhibition treated with 3 μM of a reference compound (Background wells). The average of the ratio values for each control type was calculated and used to determine the percent inhibition for each test well in the plate. Reference compound was serially diluted three-fold in DMSO for a total of nine test concentrations, beginning at 3 μM. Percent inhibition was determined and IC50 curves were generated using triplicate wells per concentration of compound. Percent Inhibition=100−

Z-138 cell line = assay: Z-138 Proliferation Assay (Cell Titer Glo, 5 days); type: cell-based; settings: Homo sapiens, 120 h; Z-138 cells, 5 days; read-out: Proliferation EC50
Excerpt: RPMI/Glutamax medium, penicillin-streptomycin, heat inactivated fetal bovine serum were purchased from Life Technologies, Grand Island, N.Y., USA. V-bottom polypropylene 384-well plates were purchased from Greiner Bio-One, Monroe, N.C., USA. Cell culture 384-well white opaque plates were purchased from Perkin Elmer, Waltham, Mass., USA. Cell-Titer Glo® was purchased from Promega Corporation, Madison, Wis., USA. SpectraMax M5 plate reader was purchased from Molecular Devices LLC, Sunnyvale, Calif., USA.
A compound source plate was prepared by performing triplicate nine-point 3-fold serial dilutions in DMSO, beginning at 10 mM (final top concentration of compound in the assay was 20 μM and the DMSO was 0.2%). A 100 nL aliquot from the compound stock plate was added to its respective well in the cell plate. […] After addition of compounds, assay plates were incubated for 5 days at 37° C., 5% CO2, relative humidity >90%.
Cell viability was measured by quantitation of ATP present in the cell cultures, adding […] of Cell Titer Glo® reagent to the cell plates. Luminescence was read in the SpectraMax M5 microplate reader. The concentration of compound inhibiting cell viability by 50% was determined using a 4-parametric fit of the normalized dose response curves.

pEC50 [1]	Compound	pEC50 (Z-138 cell line)
> 7.00	O=C(NC[C@H](O)CN1CCc2ccccc2C1)c1cccc(NC2CCN(CC(F)(F)F)CC2)c1 [Compound 217]	6.00 to 7.00
> 7.00	O=C(NC[C@H](O)CN1CCc2ccccc2C1)c1cnc2ccccc2c1 [Compound 317]	6.00 to 7.00
6.00 to 7.00	O=C(NC[C@H](O)CN1CCc2ccccc2C1)c1cc2ccccc2o1 [Compound 271]	5.00 to 6.00
> 7.00	O=C(NCC(O)CN1CCc2ccccc2C1)c1ccc(CN2CCOCC2)cc1 (centres unmarked) [Compound 145]	5.00 to 6.00
6.00 to 7.00	CN1CC(Nc2cc(C(=O)NC[C@H](O)CN3CCc4ccccc4C3)ncn2)C1 [Compound 281]	4.30 to 5.00
> 7.00	O=C(NCC(O)CN1CCc2ccccc2C1)c1ccc(F)c(NC2CCOCC2)c1 (centres unmarked) [Compound 65]	5.00 to 6.00
6.00 to 7.00	Cc1ccc2cc(C(=O)NC[C@@H](O)CN3CCc4ccccc4C3)ccc2n1 [Compound 219, (R)—N-(3-(3,4-dihydroisoquinolin-2(1H)-yl)-2-hydroxypropyl)-2-methylquinoline-6-carboxamide]	4.30 to 5.00
> 7.00	O=C(NC[C@H](O)CN1CCc2ccccc2C1)c1ccnc(NC2CCC2)c1 [Compound 188]	> 7.00
6.00 to 7.00	CN(CC(N)=O)Cc1cccc(C(=O)NCC(O)CN2CCc3ccccc3C2)c1 (centres unmarked) [Compound 195]	4.30 to 5.00
> 7.00	O=C(NC[C@H](O)CN1CCc2ccccc2C1)c1cncc(NC2CCOCC2)c1 [Compound 298]	6.00 to 7.00
> 7.00	O=C(NCC(O)CN1CCc2ccccc2C1)c1ccc(NC2CCOC2)cc1 (centres unmarked) [Compound 129]	5.00 to 6.00
> 7.00	CS(=O)(=O)N1CCC(Nc2cc(C(=O)NC[C@H](O)CN3CCc4ccccc4C3)ncn2)CC1 [Compound 297]	> 7.00
< 6.00	O=C(NC[C@H](O)CN1CCc2ccccc2C1)c1ccc2c(c1O)NCCC2 [Compound 328]	< 4.70
> 7.00	CN1CCC(Oc2cc(C(=O)NC[C@H](O)CN3CCc4ccccc4C3)ccn2)CC1 [Compound 202]	5.00 to 6.00
> 7.00	CC(=O)N(C)CCN(C)c1cc(C(=O)NC[C@H](O)CN2CCc3ccccc3C2)ccn1 [Compound 291]	5.00 to 6.00
6.00 to 7.00	O=C(NC[C@H](O)CN1CCc2ccccc2C1)c1cc(NC2CCNCC2)ncn1 [Compound 180]	4.30 to 5.00
6.00 to 7.00	NC(=O)CNCc1cccc(C(=O)NCC(O)CN2CCc3ccccc3C2)c1 (centres unmarked) [Compound 116]	< 4.70
6.00 to 7.00	COCCN1CCN(Cc2cccc(C(=O)NCC(O)CN3CCc4ccccc4C3)c2)CC1 (centres unmarked) [Compound 114]	4.30 to 5.00
6.00 to 7.00	O=C(NC[C@H](O)CN1CCc2ccccc2C1)c1ccnc(NCC2CCNCC2)c1 [Compound 235]	< 4.70
> 7.00	O=C(NC[C@H](O)CN1CCc2ccccc2C1)c1cc(NC2CCOCC2)ncn1 [Compound 193]	6.00 to 7.00
6.00 to 7.00	COc1cc(CN2CCN(C)CC2)cc(C(=O)NCC(O)CN2CCc3ccccc3C2)c1 (centres unmarked) [Compound 160]	4.30 to 5.00
6.00 to 7.00	O=C(NC[C@H](O)CN1CCc2ccccc2C1)c1ccnc(NC2CCNCC2)c1 [Compound 200]	4.30 to 5.00
6.00 to 7.00	CC(=O)N(C)CCN1CCN(Cc2cccc(C(=O)NCC(O)CN3CCc4ccccc4C3)c2)CC1 (centres unmarked) [Compound 252]	5.00 to 6.00
> 7.00	CN(c1cc(C(=O)NC[C@H](O)CN2CCc3ccccc3C2)ccn1)C1CCC1 [Compound 333]	6.00 to 7.00
6.00 to 7.00	O=C(NC[C@H](O)CN1CCc2ccccc2C1)c1ccc2c(c1)CCO2 [Compound 243]	5.00 to 6.00

pEC50 [1]	Compound	pEC50 (Z-138 cell line)
> 7.00	CS(=O)(=O)N1CCC(Oc2cc(C(=O)NC[C@H](O)CN3CCc4ccccc4C3)ncn2)CC1 [Compound 286]	5.00 to 6.00
> 7.00	CN1CCC(Oc2cncc(C(=O)NC[C@H](O)CN3CCc4ccccc4C3)c2)CC1 [Compound 288]	> 7.00
> 7.00	CN1CCC(Nc2cc(C(=O)NC[C@H](O)CN3CCc4ccccc4C3)ccn2)C1 (some centres unmarked) [Compound 255]	5.00 to 6.00
> 7.00	CS(=O)(=O)N1CCC(Nc2cccc(C(=O)NCC(O)CN3CCc4ccccc4C3)c2)C1 (centres unmarked) [Compound 122]	6.00 to 7.00
6.00 to 7.00	O=C(NCC(O)CN1CCc2ccccc2C1)c1cccc(CO)c1 (centres unmarked) [Compound 151]	< 4.70
6.00 to 7.00	NC(=O)CNCCOc1cccc(C(=O)NCC(O)CN2CCc3ccccc3C2)c1 (centres unmarked) [Compound 222]	< 4.70
6.00 to 7.00	O=C(NC[C@H](O)CN1CCc2ccccc2C1)c1ccnc(NC2CCNC2)c1 (some centres unmarked) [Compound 201]	5.00 to 6.00
> 7.00	O=C(NC[C@H](O)CN1CCc2ccccc2C1)c1ccnc(NCC2CC2)c1 [Compound 187]	6.00 to 7.00
> 7.00	CC(=O)N1CCC(Oc2ccc(C(=O)NCC(O)CN3CCc4ccccc4C3)cc2)C1 (centres unmarked) [Compound 197]	6.00 to 7.00
> 7.00	CN1CCN(Cc2ccc(C(=O)NCC(O)CN3CCc4ccccc4C3)cc2)CC1 (centres unmarked) [Compound 163]	5.00 to 6.00
> 7.00	O=C(NC[C@H](O)CN1CCc2ccccc2C1)c1ccc(OC2CCN(Cc3ccncc3)CC2)cc1 [Compound 331]	> 7.00
> 7.00	CN1CCC(Nc2cc(C(=O)NC[C@H](O)CN3CCc4ccccc4C3)ccn2)CC1 [Compound 223]	5.00 to 6.00
5.00 to 6.00	O=C(NCC(O)CN1CCc2ccccc2C1)c1cn[nH]c1-c1ccccc1 (centres unmarked) [Compound 112]	< 4.70
> 7.00	O=C(NC[C@H](O)CN1CCc2ccccc2C1)c1cncc(OC2CCOCC2)c1 [Compound 183]	5.00 to 6.00
6.00 to 7.00	O=C(NCC(O)CN1CCc2ccccc2C1)c1cccc(C2CCNC2)c1 (centres unmarked) [Compound 37]	< 4.70
6.00 to 7.00	CN(C)C(=O)CCCN1CCN(Cc2cccc(C(=O)NCC(O)CN3CCc4ccccc4C3)c2)CC1 (centres unmarked) [Compound 194]	5.00 to 6.00
> 7.00	O=C(NC[C@H](O)CN1CCc2ccccc2C1)c1ccccc1 [Compound 3, (S)—N-(3-(3,4-dihydroisoquinolin-2(1H)-yl)-2-hydroxypropyl)benzamide]	5.00 to 6.00
6.00 to 7.00	O=C(NC[C@H](O)CN1CCc2ccccc2C1)c1cc2cccc(Cl)c2[nH]1 [Compound 276]	5.00 to 6.00
6.00 to 7.00	O=C(NCC(O)CN1CCc2ccccc2C1)c1cc(Cl)cc(NC2CCOCC2)c1 (centres unmarked) [Compound 64]	5.00 to 6.00
> 7.00	NC(=O)CN1CCN(Cc2cccc(C(=O)NCC(O)CN3CCc4ccccc4C3)c2)CC1 (centres unmarked) [Compound 172]	5.00 to 6.00
> 7.00	O=C(NCC(O)CN1CCc2ccccc2C1)c1cccc(N2CCS(=O)(=O)CC2)c1 (centres unmarked) [Compound 164]	5.00 to 6.00
> 7.00	O=C(NC[C@H](O)CN1CCc2ccccc2C1)c1ccc2ncccc2c1 [Compound 220]	6.00 to 7.00
6.00 to 7.00	CN1CCC(N(C)c2cccc(C(=O)NCC(O)CN3CCc4ccccc4C3)c2)C1 (centres unmarked) [Compound 132]	5.00 to 6.00
6.00 to 7.00	O=C(NCC(O)CN1CCc2ccccc2C1)c1ccnc(NC2CCOCC2)n1 (centres unmarked) [Compound 62]	4.30 to 5.00
